Literature values, collected in patent US8062870B2, “Enantiomerically resolving acyloxyalkyl thiocarbonates used in synthesizing acyloxyalkyl carbamate prodrugs” (XenoPort, Inc., priority 2008, dated 2011).

Conditions: dosed either orally or directly into the colon of a mammal

| SMILES | bioavailability as pregabalin |
| --- | --- |
| CC(C)C[C@H](CNC(=O)OC(C)OC(=O)c1ccccc1)CC(=O)O (some centres unmarked) | high bioavailability |
| CC(C)C[C@H](CNC(=O)OC(OC(=O)C(C)C)C(C)C)CC(=O)O (some centres unmarked) | high bioavailability |
